Source: US11286263B2, “Macrocyclic fluorine substituted indole derivatives” (The Broad Institute, Inc., priority 2017, dated 2022)
“And” between values parts separate entries of the source, which are not always exact repeats. Equal values may be shown once. Read-outs that look alike come from different tables or passages of the source.

Tests used:
[1] = biological target: BCL-2 (Homo sapiens (Human), UniProt P10415); assay: Protein-protein interaction assay BCL-2/Bad BH3 peptide (BCL-2 assay), TR-FRET; type: binding; conditions: BCL-2/Bad BH3 peptide TR-FRET; median
Description: Assay 3 Protein-Protein Interaction assay: BCL-2/Bad BH3 Peptide (BCL-2 Assay)
The dose-dependent inhibition by the compounds described in this invention of the interaction between BCL-2 and the BH3 domain of Bad (both human) was determined using a steady state binding competition assay with time-resolved fluorescence energy transfer (TR-FRET) readout. For that purpose BCL-2 (amino acids 1-211, C-terminal fused to a hexahistidine (6× His) tag (SEQ ID 5) and a synthetic Bad BH3-derived peptide of sequence Biotin-PEG2-PEG2-NLWAAQRYGRELRR-Nle-SDEFVDSFKK-amide (SEQ ID 4) served as protein receptor and tracer ligand respectively. The recombinant BCL-2 protein (expressed in E. coli) was purchased from BPS Bioscience (San Diego, Calif., USA). The Bad BH3-derived peptide can be obtained from e.g. Biosyntan (Berlin, Germany).
In the assay 11 different concentrations of each compound (0.1 nM, 0.33 nM, 1.1 nM, 3.8 nM, 13 nM, 44 nM, 0.15 μM, 0.51 μM, 1.7 μM, 5.9 μM and 20 μM) were typically measured as duplicates in the same microtiter plate. For that, 100-fold concentrated DMSO solutions were prepared by serial dilutions (1:3.4) of a 2 mM stock solution in a clear, 384-well microtiter plate (Greiner Bio-One, Frickenhausen, Germany). From there, 50 nl were transferred in a dark test plate (Greiner Bio-One, Frickenhausen, Germany). The assay was initiated by addition of 2 μl of a 2,5-fold concentrated His-BCL-2 solution (usually for a 1 nM end concentration in 5 μl reaction volume) in aqueous assay buffer [50 mM Tris/HCl pH 7, 100 mM sodium chloride (NaCl), 50 mM potassium fluoride (KF), 0.005% Tween-20, 2 mM DTT, 0.1% bovine gamma globulin (BGG)] to the compounds in the assay plate. This was followed by a 10-minute incubation step at 22° C. for pre-equilibration of the putative complex between His-BCL-2 and the compounds. After that, 3 μl of a 1.67-fold concentrated solution (in assay buffer) consisting of Bad BH3-derived peptide (1 nM end concentration) and TR-FRET detection reagents [1.67 nM anti-His-Eu cryptate and 1.67 nM streptavidin-XL665 (both from Cisbio Bioassays, Codolet, France)], were added.
The mixture was incubated in the dark for one hour at 22° C. and then overnight at 4° C. The formation of BCL-2/Bad complexes was determined by measuring the resonance energy transfer of the anti-His-Eu-cryptate antibody to the streptavidin-XL665 present in the reaction. For that purpose, the fluorescence emission at 620 nm and 665 nm after excitation at 330-350 nm was measured in a TR-FRET measuring instrument, for instance a Rubystar or a Pherastar (both from BMG Lab Technologies, Offenburg, Germany) or a Viewlux (Perkin-Elmer). The ratio of the emission at 665 nm and at 622 nm was used as indicator of the amount of BCL-2/Bad complexes present.
The resulting data (ratio) were normalized, taking 0% inhibition as the mean value of control measurements (usually 32 data points) where all reagents were included. In this case 50 nl DMSO were used instead of compounds. A 100% inhibition corresponded to the mean value of control measurements (usually 32 data points) where all reagents except BCL-2 were included. IC50 values were determined by regression analysis based on a 4 parameter equation (minimum, maximum, IC50, Hill; Y=Max+(Min−Max)/(1+(X/IC50)^Hill) using the Screener Software (Genedata).

[2] = tested on: SUDHL5; assay: Induction of cytotoxicity, SUDHL5 (Assay 6); conditions: read-out: IC50 Cytotox SUDHL5 [M] (median), SUDHL5 cells, 5 h, CellTiter-Glo
[3] = tested on: MV-4-11; assay: Antiproliferation assay MV-4-11 (Assay 7); type: cell-based; conditions: MV-4-11 cells, CellTiter-Glo, single determinations, read-out: IC50 Antiproli MV-4-11
How it was run: (§1)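 A reference plate measured at day 0 set the time-zero baseline. Treated plates were read by CellTiter-Glo luminescence after 72 h of compound exposure at 37°C in a humidified incubator.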

[4] = tested on: AMO-1; assay: Antiproliferation assay AMO-1 (Assay 7); type: cell-based; conditions: AMO-1 cells, 72 h, CellTiter-Glo; single determinations; read-out: IC50 Antiproli AMO-1
How it was run: as §1

Chain of BCL-2 (P10415 1-211): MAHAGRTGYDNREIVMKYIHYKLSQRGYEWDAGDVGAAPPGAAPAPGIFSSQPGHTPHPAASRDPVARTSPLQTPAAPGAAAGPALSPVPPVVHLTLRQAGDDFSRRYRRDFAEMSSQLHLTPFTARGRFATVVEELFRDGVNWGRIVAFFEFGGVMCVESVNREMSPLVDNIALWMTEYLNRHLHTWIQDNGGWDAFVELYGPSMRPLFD

| Compound | IC50 [1] [µM] | IC50 ([2]; Homo sapiens, SU-DHL-5, 5 h) [M] | IC50 ([3]; Homo sapiens, MV4-11, 72 h) [µM] | IC50 ([3]; 72 h, listed as 01) [µM] | IC50 ([3]; 72 h, listed as 09) [µM] | IC50 ([3]; 72 h) | IC50 [2] [M] | IC50 [4] [µM] |
| --- | --- | --- | --- | --- | --- | --- | --- | --- |
| Cc1c2c(nn1C)COC/C=C\Cn1c(C(=O)O)c(CCCOc3cccc4ccccc34)c3ccc(F)c-2c31 (racemic) [Example 1, (rac)-(11Z)-4-fluoro-2,3-dimethyl-7-[3-(naphthalen-1-yloxy)propyl]-2,10,13,15-tetrahydro-pyrazolo[4′,3′:9,10][1,6]oxazacycloundecino[8,7,6-hi]indole-8-carboxylic acid] | > 20 | 1.2e-06 | 11.3 | 14.2 |  |  |  |  |
| Cc1nn(C)c2c1-c1c(F)ccc3c(CCCOc4cccc5ccccc45)c(C(=O)O)n(c13)C/C=C\COC2 (racemic) [Example 9, (rac)-(Z)-13-fluoro-10,12-dimethyl-1-(3-(naphthalen-1-yloxy)propyl)-4,7,9,10-tetrahydro-pyrazolo[4′,3′:9,10][1]oxa[6]azacycloundecino[8,7,6-hi]indole-2-carboxylic acid] | > 20 | 2.9e-06 | 7.5 |  | 6.04 |  |  |  |
| Cc1nn(C)c2c1-c1c(F)ccc3c(CCCOc4cccc5ccccc45)c(C(=O)O)n(c13)CCCCOC2 (racemic) [Example 10, (rac)-13-fluoro-10,12-dimethyl-1-(3-(naphthalen-1-yloxy)propyl)-4,5,6,7,9,10-hexahydro-pyrazolo[4′,3′:9,10][1]oxa[6]azacycloundecino[8,7,6-hi]indole-2-carboxylic acid] | > 20 | 1.8e-06 | 6.53 |  |  | 4.39 µM |  |  |
| CCc1nn(C)c2c1-c1c(F)ccc3c(CCCOc4cccc5ccccc45)c(C(=O)O)n(c13)C/C=C\COC2 (racemic) [Example 11, (rac)-(Z)-12-ethyl-13-fluoro-10-methyl-1-(3-(naphthalen-1-yloxy)propyl)-4,7,9,10-tetrahydro-pyrazolo[4′,3′:9,10][1]oxa[6]azacycloundecino[8,7,6-hi]indole-2-carboxylic acid] | > 20 | 2.3e-06 | 7.67 |  |  | 12.8 µM |  |  |
| Cc1cc(OCCCc2c(C(=O)O)n3c4c(c(F)ccc24)-c2c(nn(C)c2C)COCCCC3)cc(C)c1Cl (racemic) [Example 20, (rac)-1-(3-(4-chloro-3,5-dimethylphenoxy)propyl)-13-fluoro-11,12-dimethyl-4,5,6,7,9,11-hexahydropyrazolo[4′,3′:9,10][1]oxa[6]azacycloundecino[8,7,6-hi]indole-2-carboxylic acid] | > 20 | 1.8e-06 | 8.18 |  |  | 5.54 µM |  |  |
| Cc1nn(C)c2c1-c1c(F)ccc3c(CCCOc4ccc(F)c5ccccc45)c(C(=O)O)n(c13)CCCCOC2 (racemic) [Example 33, (rac)-13-fluoro-1-(3-((4-fluoronaphthalen-1-yl)oxy)propyl)-10,12-dimethyl-4,5,6,7,9,10-hexahydropyrazolo[4′,3′:9,10][1]oxa[6]azacycloundecino[8,7,6-hi]indole-2-carboxylic acid] | > 20 | 3.5e-06 | 11.2 |  |  |  |  |  |
| Cc1nn(C)c2c1-c1c(F)ccc3c(CCCOc4cccc5c4CCC5)c(C(=O)O)n(c13)CCCCOC2 (racemic) [Example 35, (rac)-1-(3-((2,3-dihydro-1H-inden-4-yl)oxy)propyl)-13-fluoro-10,12-dimethyl-4,5,6,7,9,10-hexahydropyrazolo[4′,3′:9,10][1]oxa[6]azacycloundecino[8,7,6-hi]indole-2-carboxylic acid] | > 20 | 7.1e-06 | 12.4 |  |  |  |  |  |
| Cc1cc(OCCCc2c(C(=O)O)n3c4c(c(F)ccc24)-c2c(C)nn(C)c2COCCCC3)cc(C)c1Cl (racemic) [Example 36, (rac)-1-(3-(4-chloro-3,5-dimethylphenoxy)propyl)-13-fluoro-10,12-dimethyl-4,5,6,7,9,10-hexahydropyrazolo[4′,3′:9,10][1]oxa[6]azacycloundecino[8,7,6-hi]indole-2-carboxylic acid] | > 20 | 4.3e-06 | 16.4 |  |  |  |  |  |
| CCc1nn(C)c2c1-c1c(F)ccc3c(CCCOc4cccc5ccccc45)c(C(=O)O)n(c13)CCCCOC2 (racemic) [Example 37, (rac)-12-ethyl-13-fluoro-10-methyl-1-(3-(naphthalen-1-yloxy)propyl)-4,5,6,7,9,10-hexahydro-pyrazolo[4′,3′:9,10][1]oxa[6]azacycloundecino[8,7,6-hi]indole-2-carboxylic acid] | > 20 | 2.1e-06 | 8.4 |  |  | 6.8 µM and 7.54 µM |  |  |
| CCc1c2c(nn1C)CN(C)CCCCn1c(C(=O)O)c(CCCOc3cccc4ccccc34)c3ccc(F)c-2c31 (racemic) [Example 54, (rac)-3-ethyl-4-fluoro-2,14-dimethyl-7-[3-(1-naphthyloxy)propyl]-10,11,12,13,14,15-hexahydro-2H-pyrazolo[3′,4′:8,9][1,6]diazacycloundecino[10,11,1-hi]indole-8-carboxylic acid] | > 20 | 4.5e-07 |  |  |  |  |  |  |
| CCc1c2c(nn1C)COCCCCn1c(C(=O)O)c(CCCOc3cccc4cc(F)ccc34)c3ccc(F)c-2c31 (single isomer, unassigned; enantiomer 1) [Example 24, 3-ethyl-4-fluoro-7-{3-[(6-fluoronaphthalen-1-yl)oxy]propyl}-2-methyl-2,10,11,12,13,15-hexahydropyrazolo[4′,3′:9,10][1,6]oxazacycloundecino[8,7,6-hi]indole-8-carboxylic acid (enantiomer 1)] | > 20 |  |  |  |  |  | 3.9e-07 | 0.878 |
| Cc1c2c(nn1C)CNCCCCn1c(C(=O)O)c(CCCOc3cccc4ccccc34)c3ccc(F)c-2c31 (single isomer, unassigned; enantiomer 1) [Example 48, 4-fluoro-2,3-dimethyl-7-{3-[(naphthalen-1-yl)oxy]propyl}-10,11,12,13,14,15-hexahydro-2H-pyrazolo[3′,4′:8,9][1,6]diazacycloundecino[10,11,1-hi]indole-8-carboxylic acid (enantiomer 1)] | > 20 |  |  |  |  |  | 1.3e-06 | 2.86 |
| (rac)-1-(3-((2,3-dihydro-1H-inden-4-yl)oxy)propyl)-12-ethyl-13-fluoro-11-methyl-4,5,6,7,9,11-hexahydropyrazolo[4′,3′:9,10][1]oxa[6]azacycloundecino[8,7,6-hi]indole-2-carboxylic acid [Example 30] | > 20 |  |  |  |  | 1.77 µM and 3.04 µM |  | 1.69 |
